The subject of the assay is Her2 protein levels in BT474 breast cancer cells. Put plainly: Her2 degradation assay (marker for Hsp90 inhibition). The assay is classed as cell-based. Conditions: Homo sapiens, BT-474, 8 hours with compound, Her2 immunocytochemistry, ArrayScan vTi. The procedure: Its inhibition impairs the capacity to fold or stabilize its client proteins, leading to the proteosomal dependent degradation of these unfolded proteins.
Cellular Her2 levels were measured by immunocytochemistry, and quantified using an ArrayScan vTi instrument (Cellomics Thermo Scientific).
Studies were performed as follows: 5000 cells/well are seeded in 96 well plates (Perkin Elmer) in DMEM/5% FCS and incubated for 48 hours at 37° C., 5% CO2.
Medium is then replaced with fresh medium containing test compounds at the required concentration. Concentration curves are prepared in DMEM/10% FCS from compound stocks in DMSO, and final DMSO concentration is 0.1% (v/v). Duplicate wells for each concentration point are prepared, with a typical highest compound concentration of 30 μM. […] Non-specific binding sites are blocked by incubating wells for 1 hour in PBS containing 3% (w/v) BSA. […] At least 10 fields, corresponding to at least 900 cells, are read for each well.

In general, IC50 refers to the point on the concentration scale where inhibition reaches its midpoint. `Nc1nc2c3c(F)cccc3nc(Cc3ccc4c(c3)OCO4)n2n1` [5-(1,3-benzodioxol-5-ylmethyl)-10-fluoro[1,2,4]triazolo[1,5-c]quinazolin-2-amine]: the concentration for half-maximal inhibition (IC50) was found to be 6.78 µM.
